The Kinase Knowledgebase extract (Sharma et al. 2016)
pIC50, pKd: −log10 of the molar value.

target: ROCK2 (human) (UniProt O75116); assay: Assessment of ROCK2 Kinase Activity by Luciferase Assay
Sequence (O75116 whole entry, looked up): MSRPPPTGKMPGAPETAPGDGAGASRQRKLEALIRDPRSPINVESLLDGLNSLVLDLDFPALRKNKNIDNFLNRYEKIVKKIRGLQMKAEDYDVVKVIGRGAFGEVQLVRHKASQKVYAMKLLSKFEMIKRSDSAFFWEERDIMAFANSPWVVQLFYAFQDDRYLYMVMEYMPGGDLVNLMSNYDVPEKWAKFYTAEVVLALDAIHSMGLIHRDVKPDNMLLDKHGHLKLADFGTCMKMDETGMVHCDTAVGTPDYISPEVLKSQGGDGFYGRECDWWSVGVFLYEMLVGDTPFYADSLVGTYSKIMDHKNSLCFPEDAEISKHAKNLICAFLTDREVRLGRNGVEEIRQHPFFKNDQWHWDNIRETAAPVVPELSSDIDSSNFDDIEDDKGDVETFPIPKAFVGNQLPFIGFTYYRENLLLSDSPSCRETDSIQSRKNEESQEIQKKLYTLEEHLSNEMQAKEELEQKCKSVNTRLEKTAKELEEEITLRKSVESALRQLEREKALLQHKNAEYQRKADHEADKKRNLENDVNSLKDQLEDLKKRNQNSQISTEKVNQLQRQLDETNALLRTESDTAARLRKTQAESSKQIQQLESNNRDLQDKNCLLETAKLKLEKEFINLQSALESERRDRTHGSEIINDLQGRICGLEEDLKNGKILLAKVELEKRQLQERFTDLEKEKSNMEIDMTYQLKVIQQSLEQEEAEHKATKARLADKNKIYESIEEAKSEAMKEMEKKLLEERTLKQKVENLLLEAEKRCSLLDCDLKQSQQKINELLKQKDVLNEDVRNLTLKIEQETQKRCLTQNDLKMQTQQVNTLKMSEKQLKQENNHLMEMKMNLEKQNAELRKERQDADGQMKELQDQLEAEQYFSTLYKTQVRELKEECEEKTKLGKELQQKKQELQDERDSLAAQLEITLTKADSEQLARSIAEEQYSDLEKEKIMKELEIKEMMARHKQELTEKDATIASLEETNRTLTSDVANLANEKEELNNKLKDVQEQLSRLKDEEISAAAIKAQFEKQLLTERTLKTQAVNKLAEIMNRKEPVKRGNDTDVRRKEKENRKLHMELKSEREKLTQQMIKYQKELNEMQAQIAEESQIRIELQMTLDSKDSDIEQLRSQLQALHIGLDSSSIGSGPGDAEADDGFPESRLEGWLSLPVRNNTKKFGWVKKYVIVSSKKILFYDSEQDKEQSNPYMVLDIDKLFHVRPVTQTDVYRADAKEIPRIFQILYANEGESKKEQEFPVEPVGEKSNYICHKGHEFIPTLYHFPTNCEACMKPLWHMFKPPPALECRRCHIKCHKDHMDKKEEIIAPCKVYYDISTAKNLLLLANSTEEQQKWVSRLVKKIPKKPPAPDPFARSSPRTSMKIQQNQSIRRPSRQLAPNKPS

Compared with `CN(C)Cc1ccc(NC(=O)c2cccc(CNC(=O)Nc3cccc(C(N)=O)c3)c2)cc1`, `CN(C)Cc1ccc(NC(=O)c2cccc(CNC(=O)Nc3ccc(C(N)=O)cc3)c2)cc1` is 1.48 log units higher in pIC50: 6.62 for the first, 8.10 for the second.

First: COc1ccc(NC(=O)NCc2cccc(C(=O)NCCC3CCCNC3)c2)cc1OC (stereo unspecified)
Second: COc1ccc(CC(=O)Nc2cccc(C(=O)NCCC3CCCNC3)c2)cc1OC (stereo unspecified)
The pIC50 of the first is 0.31 log units higher: 5.80 for the first, 5.49 for the second. The first is the more potent here.

First: CN(C)Cc1ccc(NC(=O)c2cccc(CNC(=O)c3ccc(OC(F)(F)F)c(Cl)c3)c2)cc1
Second: COc1ccc(C(=O)NCc2cccc(C(=O)Nc3ccc(CN(C)C)cc3)c2)cc1C(F)(F)F
The pIC50 of the first is 0.63 log units lower: 6.17 for the first, 6.80 for the second. The second is the more potent here.

First: COc1ccc(NC(=O)Cc2cccc(NC(=O)CCC3CCCNC3)c2)cc1OC (stereo unspecified)
Second: N#Cc1ccc(NC(=O)NCc2cccc(NC(=O)CCC3CCCNC3)c2)cc1 (stereo unspecified)
The pIC50 of the first is 0.47 log units higher: 7.43 for the first, 6.96 for the second. The first is the more potent here.

Compared with `COc1ccc(C(=O)NCc2cccc(C(=O)NCC3CCCO3)c2)cc1OC` (stereo unspecified), `COc1ccc(C(=O)NCc2cccc(C(=O)NCCC3CCCN(C)C3)c2)cc1OC` (stereo unspecified) is 4.07 log units higher in pIC50: 2.92 for the first, 6.99 for the second. The second is the more potent here.

`N#Cc1ccc(NC(=O)NCc2cccc(C(=O)NCCC3CCNCC3)c2)cc1` and `N#Cc1ccc(NC(=O)NCc2cccc(C(=O)Nc3ccc(CN)cc3)c2)cc1` are within 0.2 log units of each other in pIC50: 7.19 for the first, 7.15 for the second.

`COc1ccc(C(=O)NCc2cccc(C(=O)Nc3ccc(CN(C)C)cc3)c2)cc1` and `CN(C)Cc1ccc(NC(=O)c2cccc(CNC(=O)c3ccc(C#N)cc3)c2)cc1` are within 0.2 log units of each other in pIC50: 5.89 for the first, 5.77 for the second.

Going from `COc1ccc(C(=O)NCc2cccc(C(=O)Nc3ccc(CN(C)C)cc3)c2)cc1C` to `CN(C)Cc1ccc(NC(=O)c2cccc(CNC(=O)Nc3ccc(C#N)c(Cl)c3)c2)cc1`, the pIC50 rises from 6.58 to 8.00 (1.42 log units). The second is the more potent here.

First: CN(C)Cc1ccc(NC(=O)c2cccc(CNC(=O)Nc3ccc(C(N)=O)c(Cl)c3)c2)cc1
Second: COc1ccc(C(=O)NCc2cccc(C(=O)Nc3ccc4cnccc4c3)c2)cc1OC
The pIC50 of the first is 0.97 log units higher: 7.13 for the first, 6.16 for the second.

Molecule `COc1ccc(C(=O)NCc2cccc(C(=O)Nc3ccc4c(c3)CCNC4)c2)cc1OC` has a pIC50 of 7.00.

First: COc1ccc(C(=O)NCc2cccc(C(=O)Nc3ccc4c(c3)CNCC4)c2)cc1OC
Second: COc1ccc(C(=O)NCc2cccc(C(=O)NCCC3CCCNC3)c2)cc1OC (stereo unspecified)
The pKd of the first is 0.41 log units higher: 8.15 for the first, 7.74 for the second. The first binds more tightly here.
